Laboratory results reported in patent publication US7592326B2, “Method for stimulating the immune, inflammatory or neuroprotective response” (priority 2004, dated 2009).

Experiments:
[1] = tested on: immature DCs (iDC) and mature DCs (mDC); experiment: Cytokine production by dendritic cells (sandwich ELISA of supernatants); format: cell-based, human; settings: 24 h
Protocol: Analysis of supernatant cytokine content was performed both on treated (c-di-GMP) or untreated saline control (NaCl) immature DCs (iDC) and mature DCs (mDC). Culture supernatants were collected after 24 h treatment and IL-1β, IL-6, IL-10, IL-12, and TNF- α contents were measured using a sandwich ELISA according to the manufacturer's instructions.

[2] = tested on: Human immature DCs; experiment: Maturation of human monocyte-derived DCs (surface markers, flow cytometry); format: cell-based; settings: 24 hours
Protocol: Buffy coats were obtained from healthy human volunteers and fractionated over Histopaque-1077. The peripheral blood mononuclear cells (PBMC) layer was recovered and erythrocyte-depleted by incubation in red blood cell lysis buffer for 5 minutes at room temperature. PBMCs were cultured in complete medium (RPMI 1640, 1% L-glutamine, 1% penicillin/streptomycin, and 10% low endotoxin FCS) for 2 hours in T75 flasks (Corning). Following incubation, nonadherent cells were removed by three washes with 1× PBS (Invitrogen, Carlsbad, Calif.). The remaining adherent cells were then cultured in complete medium supplemented with GM-CSF and IL-4 (50 ng/mL each). Human and murine IL-4 and GM-CSF were purchased from Peprotech (Rocky Hill, N.J.). On day 2 and day 4, the DC cultures received an additional dose of GM-CSF and IL-4 (50 ng/mL each). On day 5, non-adherent DC were harvested by gentle pipetting, counted, and plated in fresh medium containing GM-CSF and IL-4 (50 ng/mL each). […]
Surface expression of various markers was assessed using CellQuest analysis software on a FACScalibur (Becton-Dickinson) flow cytometer. Surface expression was determined using the following FITC- and PE-conjugated antibodies: CD86-FITC (Research Diagnostics), CCR7-PE (R&D Systems), CD80-FITC, CD83-FITC, HLA-DR-FITC (BD Pharmingen). The isotype control antibodies were used accordingly in all experiments and were purchased from Pharmingen. Human DC were incubated in 1% human AB serum/PBS and were incubated with rat anti-CD16/CD32 (BD Phamingen) to block non-specific binding. Total RNA was extracted using the RNeasy kit according to the manufacturer's protocol (Qiagen). […] Emitted fluorescence for each reaction was measured during the annealing/extension phase, and amplification plots were analyzed using the MX4000 software version 3.0 (Stratagene). Quantity values (i.e., copies) for gene expression were generated by comparison of the fluorescence generated by each sample with standard curves of known quantities. Next, the calculated number of copies was divided by the number of copies of the housekeeping gene GAPDH.

[3] = tested on: C. albicans strain SC5314; experiment: Systemic C. albicans infection in mice (proposed); format: in vivo, Candida albicans; settings: A/J and C57BL/6J mice, 3×10^5 blastospores i.v.
Protocol: To show the efficacy of c-di-GMP in inhibiting C. albicans infection, 8- to 12-week-old A/J and C57BL/6J mice are infected with C. albicans strain SC5314. The blastospores are washed twice in phosphate-buffered saline (PBS) and resuspended in PBS at the required density. For experimental infections, A/J and C57BL/6J mice are inoculated via the tail vein with 200 μl of a suspension containing 3×10^5 C. albicans blastospores in PBS. One group of mice will be pretreated with c-di-GMP (intranasally, i.p., i.m., s.q.). Mice are to be closely monitored for clinical signs of disease, such as lethargy, loss of appetite, hunched back, and ruffled fur.
The levels of TNF-α and IL-6 in tissue extracts are determined using “two-site sandwich” assays with commercially available enzyme-linked immunosorbent assay (ELISA) kits (BD Biosciences). Tissue extracts are prepared by homogenization in lysis buffer (20 mM Tris [pH 7.5], 0.3 M NaCl, 2% sodium deoxycholate, 2% Triton X-100, protease inhibitor cocktail [Roche Diagnostics]). Additional determinations of the levels of 32 cytokines and chemokines are carried out by using cardiac tissue extracts and RayBio mouse cytokine array II membranes (RayBiotech Inc., Norcross, Ga.). […] All values are normalized to the protein content and determined using the Bradford reagent.

[4] = tested on: K. pneumoniae strain 43816, serotype 2; experiment: Survival in murine Klebsiella pneumonia; format: in vivo
[5] = tested on: Primary hippocampal cells; experiment: Staurosporine-induced cell death in primary hippocampal cultures (CellTiter 96 AQueous Assay); format: cell-based
Protocol: To assess the role of cyclic dinucleotides in modulating the neurological response, i.e., prevent cell death induced by staurosporine (STS) in primary hippocampal nerve cells, the effects of c-di-GMP on hippocampal cells was analyzed. Primary hippocampal cells were prepared according to previously described methods (Pereira et al., 1993). Briefly, the hippocampi were dissected from the brain of 18-day-old fetal rats. Following enzymatic and mechanical dissociation, cells were plated at a density of 100,000 cells/well in 96-well plates pre-coated with matrigel. At the 7th day after plating, cultures were subjected to one of the following treatments: (i) vehicle (24 h), (ii) STS (100 nM, 22 h), (iii) c-di-GMP (24 h), (iv) c-di-GMP (2 h) followed by c-di-GMP -plus-STS (22 h), (v) c-di-GMP -plus-STS (24 h), or (vi) STS (2 h) followed by c-di-GMP -plus-STS (22 h). At the end of the treatments, cell viability was analyzed using CellTiter 96® AQueous Assay (Promega). The assay involves the spectrophotometric measurement (at 490 nm) of the mitochondrial conversion of a tetrazolium dye into a colorful product. The absorbance of the assay correlates with the number of metabolically active cells.

`Nc1nc(=O)c2ncn([C@@H]3OC4COP(=O)(O)O[C@H]5[C@@H](O)[C@H](n6cnc7c(=O)nc(N)[nH]c76)O[C@@H]5COP(=O)(O)OC4C3O)c2[nH]1` (stereo partly shown) [c-di-GMP, Bis(3′→5′)-cyclic diguanylic acid] was tested, and the IL-10 expression ([1]; DCs) was “no major effect”, the “production of TNF-α” value ([1]; iDCs, 5 μM, FIG. 3A) was “dramatic increase” and the IL-12 secretion ([1]; immature DCs) was “undetectable”. The IL-12 production ([1]; mDCs (LPS-treated), 50 μM) was “dramatic increase”, the IL-6 production ([1]; mDCs (LPS-treated), 100 μM, FIG. 3B) was “increase” and the IL-1β production ([1]; mDCs (LPS-treated), FIG. 3B) was “major increase”. The “CD83 expression, net MFI” value ([2]; 200 uM c-di-GMP or LPS (positive control), untreated net MFI=4.89, FIG. 10A) was 63.34, the “expression of maturation markers CD80, CD86, CCR7, and MHC class II” value ([2]; 200 uM, FIG. 10C) was “increase” and the “concentration at which significant increases in surface CD83 begin” value ([2]; 5 to 500 uM, FIG. 10B) was 32 µM. For the same molecule, the clinical outcome [3] was “less mortality”, the “survival following i.t. Klebsiella challenge” value ([4]; 200 nmoles i.n. 48 and 24 hrs prior, Balb/c mice, vehicle approx. 10%, p<0.05, FIG. 15) was “significantly increased” and the “survival following i.t. Klebsiella challenge” value ([4]; 200 nmoles s.q. 48 and 24 hrs prior, Balb/c mice, p<0.05, FIG. 15) was “significantly increased”. The “survival following i.t. Klebsiella challenge” value ([4]; given concomitantly and 6 hrs post K. pneumoniae, data not shown) was “no increase in survival”, the “number of metabolic active cells vs STS alone” value ([5]; 0.1-10 μM applied together with or after STS) was “on average higher” and the “STS-induced cell death, pre-treatment” value ([5]; 0.1-10 μM, 2 h before STS 100 nM, FIG. 5) was “prevented the STS-induced cell death”. The “toxicity to primary hippocampal cultures” value ([5]; 24 h) was “not toxic”.
